Measured values from ChEMBL document CHEMBL1201862, “PubChem BioAssay data set” (2004).
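Growth conditions: 96-well plates. Treatment: test compound, 48 hours, 5 concentrations. Analysis: linear interpolation between bracketing concentrations; unreached endpoints set to highest concentration. GI50: concentration for 50% inhibition of growth.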 Calls of active or inactive are those of the source. Cut-off read from the data, not from the text of the source: active = GI50 up to about 1.1 µM and inactive = higher. Peptide text beside a SMILES is read from it. * marks the point of attachment. Cbz = O=C(OCc1ccccc1)*

Key:
Assay in all cases: NCI tumour cell line growth inhibition, 48 h
RXF 393 = tested on: RXF 393
TK-10 = tested on: TK-10
MDA-MB-231 = tested on: MDA-MB-231
EKVX = tested on: EKVX
T47D = tested on: T47D
NCI-H23 = tested on: NCI-H23
MOLT-4 = tested on: MOLT-4
SF-268 = tested on: SF-268
A549 = tested on: A549
CAKI-1 = tested on: CAKI-1
BT-549 = tested on: BT-549
HCT-15 = tested on: HCT-15
DU-145 = tested on: DU-145
A498 = tested on: A498
IGROV-1 = tested on: IGROV-1
SN12C = tested on: SN12C
NCI-H460 = tested on: NCI-H460
HL-60 = tested on: HL-60
MDA-MB-435 = tested on: MDA-MB-435
M14 = tested on: M14

Row | SMILES | GI50 (RXF 393) | GI50 (TK-10) | GI50 (MDA-MB-231) | GI50 (EKVX) | GI50 (T47D) | GI50 (NCI-H23) | GI50 (MOLT-4) | GI50 (SF-268) | GI50 (A549) | GI50 (CAKI-1) | GI50 (BT-549) | GI50 (HCT-15) [µM] | GI50 (DU-145) | GI50 (A498) | GI50 (IGROV-1) | GI50 (SN12C) | GI50 (NCI-H460) | GI50 (HL-60) | GI50 (MDA-MB-435) | GI50 (M14)
1 | O=C(O)CCC(NC(=O)OCc1ccccc1)C(=O)NC(Cc1c[nH]cn1)C(=O)O (stereo not drawn) (Cbz-Glu-His-OH; configuration not given here) | > 100 µM (inactive) | > 100 µM (inactive) | 37.1 µM (inactive) | > 100 µM (inactive) | > 100 µM (inactive) | > 100 µM (inactive) | > 100 µM (inactive) | > 100 µM (inactive) | > 100 µM (inactive) | > 100 µM (inactive) | > 100 µM (inactive) | > 100 | > 100 µM (inactive) | > 100 µM (inactive) | > 100 µM (inactive) | > 100 µM (inactive) | > 100 µM (inactive) | > 100 µM (inactive) | > 100 µM (inactive) | > 100 µM (inactive)
2 | Cc1ccc(-c2nnc(-c3ccc4ccccc4c3)o2)cc1 | 5.87 µM (inactive) | 7.94 µM (inactive) | 25.8 µM (inactive) | 40.2 µM (inactive) | 19.2 µM (inactive) | > 100 µM (inactive) | 3.13 µM (inactive) | 9.31 µM (inactive) | > 100 µM (inactive) | 5.19 µM (inactive) | 13.7 µM (inactive) | > 96.8 | 18.2 µM (inactive) | > 100 µM (inactive) | > 91.2 µM (inactive) | 14.6 µM (inactive) | 83 µM (inactive) | 2.93 µM (inactive) | 8.11 µM (inactive) | 12.3 µM (inactive)
3 | COC(=O)C12C3C4C1C1C2C3C41C(=O)NC(C)(C)CC(=O)O (stereo not given) | > 100 µM (inactive) | > 100 µM (inactive) | > 100 µM (inactive) | > 100 µM (inactive) | > 100 µM (inactive) | > 100 µM (inactive) | > 100 µM (inactive) | > 100 µM (inactive) | > 100 µM (inactive) | > 100 µM (inactive) | > 100 µM (inactive) | > 100 | > 100 µM (inactive) | > 100 µM (inactive) | > 100 µM (inactive) | > 100 µM (inactive) | 20.7 µM (inactive) | > 100 µM (inactive) | > 100 µM (inactive) | > 100 µM (inactive)
4 | CNS(=O)(=O)c1ccccc1C(=N)c1ccccc1 | > 100 µM (inactive) | > 100 µM (inactive) | > 100 µM (inactive) | > 100 µM (inactive) | > 100 µM (inactive) | > 100 µM (inactive) | > 100 µM (inactive) | > 100 µM (inactive) | > 100 µM (inactive) | > 100 µM (inactive) | > 100 µM (inactive) | > 100 | > 100 µM (inactive) | > 100 µM (inactive) | > 100 µM (inactive) | > 100 µM (inactive) | > 100 µM (inactive) | > 100 µM (inactive) | > 100 µM (inactive) | > 100 µM (inactive)
5 | CN1N=C(c2ccccc2)C(C(c2ccccc2[N+](=O)[O-])C2C(=O)N(C)N=C2c2ccccc2)C1=O (stereo not given) | 52 µM (inactive) | > 100 µM (inactive) | > 100 µM (inactive) | > 100 µM (inactive) | > 100 µM (inactive) | > 100 µM (inactive) | 37.6 µM (inactive) | 97.7 µM (inactive) | > 100 µM (inactive) | > 100 µM (inactive) | 63.4 µM (inactive) | 42.6 | > 100 µM (inactive) | > 81.8 µM (inactive) | 25.1 µM (inactive) | > 95.1 µM (inactive) | > 100 µM (inactive) | 18.7 µM (inactive) | > 100 µM (inactive) | > 100 µM (inactive)
6 | O=[N+]([O-])c1cccc2nc3ccccc3c(NCCCN3CCOCC3)c12 | < 0.013 µM (active) | 0.029 µM (active) | 0.0189 µM (active) | < 0.0127 µM (active) | 0.0355 µM (active) | < 0.0129 µM (active) | < 0.01 µM (active) | 0.0226 µM (active) | < 0.0121 µM (active) | 0.0221 µM (active) | 0.0273 µM (active) | < 0.0104 | < 0.01 µM (active) | < 0.0146 µM (active) | 0.0217 µM (active) | < 0.0132 µM (active) | < 0.01 µM (active) | 0.0302 µM (active) | < 0.0117 µM (active) | < 0.0124 µM (active)
7 | C=C1c2nc3ccccc3n2C=C(c2ccccc2)N1c1ccc(Cl)cc1 | 17.5 µM (inactive) | 13.4 µM (inactive) | 17.4 µM (inactive) | 13.4 µM (inactive) | 12.6 µM (inactive) | 33.1 µM (inactive) | > 100 µM (inactive) | > 100 µM (inactive) | 15.8 µM (inactive) | 7.08 µM (inactive) | 23.4 µM (inactive) | 33.3 | 59.8 µM (inactive) | > 48.9 µM (inactive) | 10.6 µM (inactive) | > 63.5 µM (inactive) | 12.6 µM (inactive) | > 100 µM (inactive) | > 82.8 µM (inactive) | 17.1 µM (inactive)
8 | Cc1ccc(OP(=O)(Oc2ccc(C)cc2)N2C=Cc3ccccc3C2C#N)cc1 (stereo not given) | > 100 µM (inactive) | > 100 µM (inactive) | > 100 µM (inactive) | > 100 µM (inactive) | > 100 µM (inactive) | > 100 µM (inactive) | > 100 µM (inactive) | > 100 µM (inactive) | > 100 µM (inactive) | > 100 µM (inactive) | > 100 µM (inactive) | > 100 | > 100 µM (inactive) | > 100 µM (inactive) | > 100 µM (inactive) | > 100 µM (inactive) | > 100 µM (inactive) | > 100 µM (inactive) | > 100 µM (inactive) | > 100 µM (inactive)
9 | COC1CCN(N(C)C)O1 (stereo not given) | > 100 µM (inactive) | > 100 µM (inactive) | > 100 µM (inactive) | > 100 µM (inactive) | > 100 µM (inactive) | > 100 µM (inactive) | > 100 µM (inactive) | > 100 µM (inactive) | > 100 µM (inactive) | > 100 µM (inactive) | > 100 µM (inactive) | > 100 | > 100 µM (inactive) | > 100 µM (inactive) | > 100 µM (inactive) | > 100 µM (inactive) | > 100 µM (inactive) | > 100 µM (inactive) | > 100 µM (inactive) | > 100 µM (inactive)
10 | CC(CCC(=O)O)C(=O)O (stereo not given) | > 100 µM (inactive) | > 100 µM (inactive) | > 100 µM (inactive) | > 100 µM (inactive) | > 100 µM (inactive) | > 100 µM (inactive) | > 100 µM (inactive) | > 100 µM (inactive) | > 100 µM (inactive) | > 100 µM (inactive) | > 100 µM (inactive) | > 100 | > 100 µM (inactive) | > 100 µM (inactive) | > 100 µM (inactive) | > 100 µM (inactive) | > 100 µM (inactive) | > 100 µM (inactive) | > 100 µM (inactive) | > 100 µM (inactive)
11 | NCCNCCCNC(=O)c1cc(-c2ccccc2)nc2ccccc12 | 38.8 µM (inactive) | 62.7 µM (inactive) | 31.3 µM (inactive) | > 100 µM (inactive) | 38.5 µM (inactive) | 30.6 µM (inactive) | 22.1 µM (inactive) | 26.1 µM (inactive) | 41.6 µM (inactive) | 52.4 µM (inactive) | 55.8 µM (inactive) | > 100 | > 100 µM (inactive) | 41.7 µM (inactive) | > 100 µM (inactive) | 40.8 µM (inactive) | 35.2 µM (inactive) | 30.6 µM (inactive) | 20.8 µM (inactive) | 15.1 µM (inactive)
12 | CN(N=O)c1ccc(/C=C/c2ccnc3ccccc23)cc1 | 46.6 µM (inactive) | 29.4 µM (inactive) | 88.7 µM (inactive) | 26.4 µM (inactive) | 50.4 µM (inactive) | > 100 µM (inactive) | 34 µM (inactive) | 79.8 µM (inactive) | 41.6 µM (inactive) | 42.3 µM (inactive) | > 100 µM (inactive) | 54.2 | 61.5 µM (inactive) | 60.4 µM (inactive) | 49 µM (inactive) | 37.6 µM (inactive) | 34.2 µM (inactive) | 92.3 µM (inactive) | > 100 µM (inactive) | 93.1 µM (inactive)
13 | C1CSCCCSCCCSCCCSCCCSC1 | 42.9 µM (inactive) | 37.2 µM (inactive) | 29.2 µM (inactive) | 24.5 µM (inactive) | 17.2 µM (inactive) | 26.5 µM (inactive) | 9.82 µM (inactive) | 33.1 µM (inactive) | 28.5 µM (inactive) | 17.7 µM (inactive) | 33.8 µM (inactive) | 40.6 | 46.5 µM (inactive) | 36.2 µM (inactive) | 31.1 µM (inactive) | 37.2 µM (inactive) | 14.4 µM (inactive) | 14.2 µM (inactive) | 41.9 µM (inactive) | 29.7 µM (inactive)
14 | [O-][n+]1cc(SCc2ccccc2)ncc1SCc1ccccc1 | > 10 µM (inactive) | > 10 µM (inactive) | > 10 µM (inactive) | > 10 µM (inactive) | > 10 µM (inactive) | > 10 µM (inactive) | > 10 µM (inactive) | > 10 µM (inactive) | > 10 µM (inactive) | > 10 µM (inactive) | 0.811 µM (active) | > 10 | > 10 µM (inactive) | > 10 µM (inactive) | > 10 µM (inactive) | > 10 µM (inactive) | > 10 µM (inactive) | > 10 µM (inactive) | > 10 µM (inactive) | > 10 µM (inactive)
